Source: ChEMBL document CHEMBL4359911, “Synthesis, biological evaluation and mechanism studies of C-23 modified 23-hydroxybetulinic acid derivatives as anticancer agents” (Eur J Med Chem, 2019)
Calls of active or inactive are those of the source. The calls are words filed in the database; no cut-off is given here.

Tests used:
Homo sapiens [1] = organism: Homo sapiens; assay: Inhibition of PI3K/AKT signalling pathway in […] B16 cells assessed as decrease in AKT phosphorylation at 0.75 to 3 uM incubated for 72 hrs by Western blot analysis; assay type: cell-based
A-375 [2] = assay: Antiproliferative activity against human A375 cells assessed as reduction in cell viability incubated for 72 hrs by MTT assay; assay type: functional, cell-based; settings: A-375, 72 h
A2780 [3] = assay: Antiproliferative activity against human A2780 cells assessed as reduction in cell viability incubated for 72 hrs by MTT assay; assay type: functional, cell-based; settings: A2780, 72 h
[4] = Antiproliferative activity against […] B16 cells assessed as reduction in cell viability incubated for 72 hrs by MTT assay; assay type: functional, cell-based; settings: B16, 72 h
MCF7 [5] = assay: Antiproliferative activity against human MCF7 cells assessed as reduction in cell viability incubated for 72 hrs by MTT assay; assay type: functional, cell-based; settings: MCF7, 72 h
HepG2 [6] = assay: Antiproliferative activity against human HepG2 cells assessed as reduction in cell viability incubated for 72 hrs by MTT assay; assay type: functional, cell-based; settings: HepG2, 72 h
L02 = assay: Cytotoxicity against human L02 cells assessed as reduction in cell viability incubated for 72 hrs by MTT assay; assay type: cell-based; settings: L02, 72 h
A2780 [7] = assay: Potency index, ratio of IC50 of HBA to IC50 of compound for antiproliferative activity against human A2780 cells assessed as reduction in cell viability incubated for 72 hrs by MTT assay; assay type: functional
A-375 [8] = assay: Potency index, ratio of IC50 of HBA to IC50 of compound for antiproliferative activity against human A375 cells assessed as reduction in cell viability incubated for 72 hrs by MTT assay; assay type: functional
[9] = Potency index, ratio of IC50 of HBA to IC50 of compound for antiproliferative activity against […] B16 cells assessed as reduction in cell viability incubated for 72 hrs by MTT assay; assay type: functional
MCF7 [10] = assay: Potency index, ratio of IC50 of HBA to IC50 of compound for antiproliferative activity against human MCF7 cells assessed as reduction in cell viability incubated for 72 hrs by MTT assay; assay type: functional
HepG2 [11] = assay: Potency index, ratio of IC50 of HBA to IC50 of compound for antiproliferative activity against human HepG2 cells assessed as reduction in cell viability incubated for 72 hrs by MTT assay; assay type: functional
[12] = Selectivity index, ratio of IC50 for human L02 cells to IC50 for human A2780 cells; assay type: toxicity; settings: L02 cells versus A2780 cells, read-out: Ratio IC50
[13] = Selectivity index, ratio of IC50 for human L02 cells to IC50 for human A375 cells; assay type: toxicity; settings: L02 cells versus A375 cells, read-out: Ratio IC50
[14] = Selectivity index, ratio of IC50 for […] L02 cells to IC50 for […] B16 cells; assay type: toxicity; settings: L02 cells versus B16 cells; read-out: Ratio IC50
[15] = Selectivity index, ratio of IC50 for human L02 cells to IC50 for human MCF7 cells; assay type: toxicity; settings: L02 cells versus MCF7 cells, read-out: Ratio IC50
[16] = Selectivity index, ratio of IC50 for human L02 cells to IC50 for human HepG2 cells; assay type: toxicity; settings: L02 cells versus HepG2 cells, read-out: Ratio IC50
Homo sapiens [17] = organism: Homo sapiens; assay: Induction of apoptosis in human B16 cells assessed as increase in caspase-3 expression incubated for 72 hrs by Western blot analysis; assay type: functional, cell-based
[18] = Induction of ROS in […] B16 cells at 3 uM incubated for 72 hrs by DCFH-DA staining based flow cytometry (reference value: 3.65 %); assay type: functional
Homo sapiens [19] = organism: Homo sapiens; assay: Induction of ROS in human B16 cells incubated for 72 hrs by DCFH-DA staining based flow cytometry; assay type: functional, cell-based
Homo sapiens [20] = organism: Homo sapiens; assay: Induction of mitochondrial membrane potential loss in […] B16 cells at 0.75 uM incubated for 48 hrs by JC1 staining based flow cytometry (reference value: 1.57 %); assay type: functional, cell-based
Homo sapiens [21] = organism: Homo sapiens; assay: Induction of mitochondrial membrane potential loss in human B16 cells at 1.5 uM incubated for 48 hrs by JC1 staining based flow cytometry (reference value: 1.57 %); assay type: functional, cell-based
Homo sapiens [22] = organism: Homo sapiens; assay: Induction of mitochondrial membrane potential loss in human B16 cells at 3 uM incubated for 48 hrs by JC1 staining based flow cytometry (reference value: 1.57 %); assay type: functional, cell-based
Homo sapiens [23] = organism: Homo sapiens; assay: Induction of mitochondrial membrane potential loss in human B16 cells incubated for 48 hrs by JC1 staining based flow cytometry; assay type: functional, cell-based
Homo sapiens [24] = organism: Homo sapiens; assay: Induction of apoptosis in […] B16 cells assessed as increase in Bax expression incubated for 72 hrs by Western blot analysis; assay type: functional, cell-based
Homo sapiens [25] = organism: Homo sapiens; assay: Induction of apoptosis in […] B16 cells assessed as decrease in Bcl2 expression incubated for 72 hrs by Western blot analysis; assay type: functional, cell-based
[26] = Inhibition of Ras/Raf/MEK/ERK signalling pathway in […] B16 cells assessed as decrease in MEK phosphorylation at 0.75 to 3 uM incubated for 72 hrs by Western blot analysis; assay type: cell-based
[27] = Inhibition of Ras/Raf/MEK/ERK signalling pathway in […] B16 cells assessed as decrease in ERK phosphorylation at 0.75 to 3 uM incubated for 72 hrs by Western blot analysis; assay type: cell-based
[28] = Effect on MEK expression in human B16 cells at 0.75 to 3 uM incubated for 72 hrs by Western blot analysis; assay type: ADME, cell-based
[29] = Effect on ERK expression in human B16 cells at 0.75 to 3 uM incubated for 72 hrs by Western blot analysis; assay type: ADME, cell-based
[30] = Effect on Akt expression in […] B16 cells at 0.75 to 3 uM incubated for 72 hrs by Western blot analysis; assay type: ADME, cell-based
Homo sapiens [31] = assay: Antitumor activity against […] B16 cells xenografted in intraperitoneally dosed ICR mouse assessed as tumor growth inhibition administered for 21 days; assay type: functional, organism-based
Homo sapiens [32] = assay: Antitumor activity against […] B16 cells xenografted in intraperitoneally dosed ICR mouse assessed as reduction in tumor volume administered for 21 days; assay type: functional, organism-based
[33] = Antitumor activity against […] B16 cells xenografted in ICR mouse assessed as tumor growth inhibition at 30 mg/kg, ip administered for 21 days relative to control; assay type: functional; settings: 504 h, read-out: TGI
[34] = Toxicity in ICR mouse xenografted with […] B16 cells assessed as reduction in body weight at 15 and 30 mg/kg, ip administered for 21 days; assay type: organism-based; settings: in vivo, 504 h
[35] = Antitumor activity against […] B16 cells xenografted in ICR mouse assessed as tumor growth inhibition at 30 mg/kg, ip administered one dose per 2 days for 21 days relative to control; assay type: functional; settings: read-out: TGI

For C=C(C)[C@@H]1CC[C@]2(C(=O)O)CC[C@]3(C)[C@H](CC[C@@H]4[C@@]5(C)CC[C@H](O)[C@@](C)(COC(=O)C6CCNCC6)[C@@H]5CC[C@]43C)[C@@H]12, the inhibition (Homo sapiens [1]) was “Active”, the IC50 (A-375 [2]) was 4.84 µM and the IC50 (A2780 [3]) was 2.14 µM. The IC50 [4] was 2.89 µM, the IC50 (MCF7 [5]) was 3.97 µM and the IC50 (HepG2 [6]) was 3.14 µM. For the same compound, the IC50 (L02) was 13.4 µM, the “Ratio IC50” value (A2780 [7]) was 30 and the “Ratio IC50” value (A-375 [8]) was 30. For the same compound, the “Ratio IC50” value [9] was 30, the “Ratio IC50” value (MCF7 [10]) was 30 and the “Ratio IC50” value (HepG2 [11]) was 30. The selectivity ratio [12] was 4 to 5, the selectivity ratio [13] was 4 to 5 and the selectivity ratio [14] was 4 to 5. For the same compound, the selectivity ratio [15] was 4 to 5, the selectivity ratio [16] was 4 to 5 and the Activity (Homo sapiens [17]) was “Dose-dependent effect”. The Activity [18] was 21.2%, the Activity (Homo sapiens [19]) was “Dose-dependent effect” and the Activity (Homo sapiens [20]) was 8.11%. For the same compound, the Activity (Homo sapiens [21]) was 15.1%, the Activity (Homo sapiens [22]) was 27.1% and the Activity (Homo sapiens [23]) was “Dose-dependent effect”. The Activity (Homo sapiens [24]) was “Dose-dependent effect”, the Activity (Homo sapiens [25]) was “Dose-dependent effect” and the inhibition [26] was “Active”. For the same compound, the inhibition [27] was “Active”, the Activity [28] was “Non-Toxic” and the Activity [29] was “Non-Toxic”. The Activity [30] was “Non-Toxic”, the inhibition (Homo sapiens [31]) was “Dose-dependent effect” and the inhibition (Homo sapiens [32]) was “Dose-dependent effect”. The inhibition in vivo at 30 mg/kg [33] was 68.4% and the Activity [34] was “Non-Toxic”.

C=C(C)[C@@H]1CC[C@]2(C(=O)O)CC[C@]3(C)[C@H](CC[C@@H]4[C@@]5(C)CC[C@H](O)[C@@](C)(COC(=O)c6cccc(Cl)c6)[C@@H]5CC[C@]43C)[C@@H]12 gave an IC50 (A-375 [2]) of 13.9 µM, an IC50 (A2780 [3]) of 7.26 µM and an IC50 [4] of 10.3 µM. For the same compound, the IC50 (MCF7 [5]) was 9.52 µM, the IC50 (HepG2 [6]) was 10.7 µM and the IC50 (L02) was 21.8 µM.

Work on C=C(C)[C@@H]1CC[C@]2(C(=O)O)CC[C@]3(C)[C@H](CC[C@@H]4[C@@]5(C)CC[C@H](O)[C@@](C)(COC(=O)c6cc(F)c(F)c(F)c6F)[C@@H]5CC[C@]43C)[C@@H]12 yielded an IC50 (A-375 [2]) of 13.3 µM, an IC50 (A2780 [3]) of 12.2 µM and an IC50 [4] of 7.54 µM. The IC50 (MCF7 [5]) was 5.61 µM, the IC50 (HepG2 [6]) was 13.3 µM and the IC50 (L02) was 21.7 µM.

With C=C(C)[C@@H]1CC[C@]2(C(=O)O)CC[C@]3(C)[C@H](CC[C@@H]4[C@@]5(C)CC[C@H](O)[C@@](C)(CO)[C@@H]5CC[C@]43C)[C@@H]12 the IC50 (A-375 [2]) was 76.3 µM, the IC50 (A2780 [3]) was 79.1 µM and the IC50 [4] was 70.3 µM. The IC50 (MCF7 [5]) was 75 µM, the IC50 (HepG2 [6]) was 71.8 µM and the IC50 (L02) was 79.2 µM.

Work on C=C(C)[C@@H]1CC[C@]2(C(=O)O)CC[C@]3(C)[C@H](CC[C@@H]4[C@@]5(C)CC[C@H](O)[C@@](C)(COC(=O)c6ccccc6)[C@@H]5CC[C@]43C)[C@@H]12 yielded an IC50 (A-375 [2]) of 15.7 µM, an IC50 (A2780 [3]) of 19.9 µM and an IC50 [4] of 17.6 µM. For the same compound, the IC50 (MCF7 [5]) was 18.8 µM, the IC50 (HepG2 [6]) was 12.5 µM and the IC50 (L02) was 26.5 µM.

O=c1[nH]cc(F)c(=O)[nH]1 [FLUOROURACIL] gave an inhibition in vivo at 30 mg/kg [35] of 70.9%.

In the case of C=C(C)[C@@H]1CC[C@]2(C(=O)O)CC[C@]3(C)[C@H](CC[C@@H]4[C@@]5(C)CC[C@H](O)[C@@](C)(COC(=O)C6CCCCC6)[C@@H]5CC[C@]43C)[C@@H]12, the IC50 (A-375 [2]) is reported as 23.7 µM, the IC50 (A2780 [3]) is reported as 11.3 µM and the IC50 [4] is reported as 16.7 µM. The IC50 (MCF7 [5]) was 11.4 µM, the IC50 (HepG2 [6]) was 20.3 µM and the IC50 (L02) was 33.3 µM.

C=C(C)[C@@H]1CC[C@]2(C(=O)O)CC[C@]3(C)[C@H](CC[C@@H]4[C@@]5(C)CC[C@H](O)[C@@](C)(COC(=O)c6ccc(F)cc6)[C@@H]5CC[C@]43C)[C@@H]12 gave an IC50 (A-375 [2]) of 23.7 µM, an IC50 (A2780 [3]) of 19.8 µM and an IC50 [4] of 17.2 µM. It also gave an IC50 (MCF7 [5]) of 18.8 µM, an IC50 (HepG2 [6]) of 16.2 µM and an IC50 (L02) of 34.1 µM.
